Measured values: patent publication US8883782B2, “Spiro-tetracyclic ring compounds as beta-secretase modulators and methods of use” (Amgen Inc., priority 2010, dated 2014)
Read-outs that look alike come from different tables or passages of the source.

What was measured:
[1] = biological target: Beta Secretase enzyme (BACE) (Homo sapiens, UniProt P56817); test: In vitro enzymatic BACE FRET (fluorescence resonance energy transfer) assay; type: biochemical; settings: average IC50, enzyme assay; read-out: BACE 1 FRET assay
Beta Secretase enzyme (BACE), sequence (P56817 46-501, species assumed): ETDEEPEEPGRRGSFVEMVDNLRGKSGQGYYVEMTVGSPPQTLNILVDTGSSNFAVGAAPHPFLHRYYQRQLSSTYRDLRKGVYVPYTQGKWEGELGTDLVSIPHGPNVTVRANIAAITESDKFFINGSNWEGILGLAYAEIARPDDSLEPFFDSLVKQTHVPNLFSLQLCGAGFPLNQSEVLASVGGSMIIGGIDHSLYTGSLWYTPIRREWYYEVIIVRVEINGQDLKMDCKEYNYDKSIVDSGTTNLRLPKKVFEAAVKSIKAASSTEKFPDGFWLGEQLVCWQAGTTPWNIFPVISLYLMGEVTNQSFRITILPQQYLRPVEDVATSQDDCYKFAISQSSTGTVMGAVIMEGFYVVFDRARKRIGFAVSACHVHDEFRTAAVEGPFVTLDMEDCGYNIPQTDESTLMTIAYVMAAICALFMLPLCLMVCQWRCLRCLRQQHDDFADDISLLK
Outline: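 Buffer 0.05 M acetate pH 4.2, 10% DMSO final, 100 uM genapol (sub-CMC); start with 50 nM FRET substrate; 1 h incubation; Tris stop; fluorescence read.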

[2] = system: Aβ40 in conditioned medium of cells stably expressing Amyloid Precursor Protein (APP); test: In vitro BACE cell-based assay (Aβ40 in conditioned medium, sandwich ELISA); settings: read-out: HEK cell assay
Outline: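 Conditioned medium from stably APP-expressing cells treated with compound dose series is assayed for Aβ40 by sandwich ELISA with time-resolved fluorescence detection. IC50 is calculated from percent inhibition of Aβ40 against compound concentration.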

[3] = Homo sapiens, HEK293, average IC50
[4] = Homo sapiens, HEK293, average IC50, HEK cells

Row | Compound | IC50 [1] | IC50 [2, 3] | IC50 [2, 4] | IC50 ([2]; average IC50, HEK cells)
1 | CC(C)(C)COc1ccc2c(c1)[C@]1(COC(N)=N1)c1c(ccc(-c3cncnc3)c1F)O2 [Example 515, (4R)-7′-(2,2-dimethylpropoxy)-1′-fluoro-2′-(5-pyrimidinyl)spiro[1,3-oxazole-4,9′-xanthen]-2-amine] | 1.3 nM |  | 28.5 nM | 
2 | NC1=N[C@]2(CO1)c1cc(Br)ccc1Oc1nc(F)ccc12 [Example 484, (5R)-7-bromo-2-fluorospiro[chromeno[2,3-b]pyridine-5,4′-[1,3]oxazol]-2′-amine] | 24600 nM |  | 10000 nM | 
3 | NC1=N[C@@]2(CO1)c1cc(Br)ccc1Oc1c2cc(Cl)nc1F [Example 487, (5S)-7-bromo-3-chloro-1-fluorospiro[chromeno[2,3-c]pyridine-5,4′-[1,3]oxazol]-2′-amine] | 3680 nM |  | 740 nM | 
4 | CC1(COc2cc(F)c3c(c2)[C@]2(COC(N)=N2)c2cc(-c4cccnc4)c(F)cc2O3)COC1 [Example 294, (4S)-3′,5′-difluoro-7′-((3-methyl-3-oxetanyl)methoxy)-2′-(3-pyridinyl)spiro[1,3-oxazole-4,9′-xanthen]-2-amine] | 61.1 nM | 612 nM |  | 
5 | NC1=N[C@@]2(CO1)c1cc(-c3cncc(F)c3)ccc1Oc1c(F)cc([C@H]3CCCOC3)cc12 [Example 285, (4S)-4′-fluoro-7′-(5-fluoro-3-pyridinyl)-2′-((3R)-tetrahydro-2H-pyran-3-yl)spiro[1,3-oxazole-4,9′-xanthen]-2-amine] | 2.4 nM | 20.4 nM |  | 
6 | CC1(C)C[C@@H](c2cc(F)c3c(c2)[C@]2(COC(N)=N2)c2cc(-c4cnccn4)ccc2O3)CCO1 [Example 449, (4S)-2′-((4S)-2,2-dimethyltetrahydro-2H-pyran-4-yl)-4′-fluoro-7′-(2-pyrazinyl)spiro[1,3-oxazole-4,9′-xanthen]-2-amine] | 3.7 nM |  | 20 nM | 
7 | NC1=NC2(CS1)c1cc(I)ccc1Oc1ncc(Br)cc12 (stereo not drawn) [Example 522, 3-bromo-7-iodospiro[chromeno[2,3-b]pyridine-5,4′-[1,3]thiazol]-2′-amine] | 4500 nM |  | 10000 nM | 
8 | Cc1ccn(-c2cc(F)c3c(c2)[C@]2(COC(N)=N2)c2cc(-c4cccnc4F)ccc2O3)n1 [Example 620, (4S)-4′-fluoro-7′-(2-fluoro-3-pyridinyl)-2′-(3-methyl-1H-pyrazol-1-yl)spiro[1,3-oxazole-4,9′-xanthen]-2-amine] | 2.8 nM |  | 68 nM | 
9 | NC1=N[C@@]2(CO1)c1cc(-c3c(F)ccnc3F)ccc1Oc1cnc([C@H]3CCCCO3)cc12 [Example 617, (5S)-7-(2,4-difluoro-3-pyridinyl)-3-((2R)-tetrahydro-2H-pyran-2-yl)spiro[chromeno[2,3-c]pyridine-5,4′-[1,3]oxazol]-2′-amine] | 5.2 nM |  |  | 42 nM
10 | NC1=N[C@@]2(CO1)c1cc(-c3cccnc3F)ccc1Oc1ncc(C#CC3(F)COC3)cc12 [Example 520, (5S)-3-((3-fluoro-3-oxetanyl)ethynyl)-7-(2-fluoro-3-pyridinyl)spiro[chromeno[2,3-b]pyridine-5,4′-[1,3]oxazol]-2′-amine] | 1.4 nM |  | 13.9 nM | 
11 | NC1=N[C@@]2(CO1)c1cc(-c3cccnc3F)ccc1Oc1cnc(C3=CCCCC3)cc12 [Example 386, (5S)-3-(1-cyclohexen-1-yl)-7-(2-fluoro-3-pyridinyl)spiro[chromeno[2,3-c]pyridine-5,4′-[1,3]oxazol]-2′-amine] | 0.4 nM |  | 11.1 nM | 
12 | CC1(C#Cc2cnc3c(c2)[C@]2(COC(N)=N2)c2cc(-c4cncc(F)c4)c(F)cc2O3)COC1 [Example 623, (5S)-8-fluoro-7-(5-fluoro-3-pyridinyl)-3-((3-methyl-3-oxetanyl)ethynyl)spiro[chromeno[2,3-b]pyridine-5,4-[1,3]oxazol]-2′-amine] | 0.9 nM |  | 9 nM | 
13 | CC(C)(C)C#Cc1cnc2c(c1)[C@@]1(COC(N)=N1)c1c(ccc(-c3cncnc3)c1F)O2 [Example 337, (5S)-3-(3,3-dimethyl-1-butyn-1-yl)-6-fluoro-7-(5-pyrimidinyl)spiro[chromeno[2,3-b]pyridine-5,4′-[1,3]oxazol]-2′-amine] | 836 nM | 535 nM |  | 
14 | NC1=N[C@@]2(CO1)c1cc(C#CC3CC3)ccc1Oc1ncc(N3CCC(F)(F)CC3)cc12 [Example 181, (5S)-7-(cyclopropylethynyl)-3-(4,4-difluoro-1-piperidinyl)spiro[chromeno[2,3-b]pyridine-5,4′-[1,3]oxazol]-2′-amine] | 5.7 nM | 27.1 nM |  | 
15 | CC1(C#Cc2cnc3c(c2)[C@@]2(COC(N)=N2)c2cc(-c4cnccc4F)c(F)cc2O3)COC1 [Example 622, (5R)-8-fluoro-7-(4-fluoro-3-pyridinyl)-3-((3-methyl-3-oxetanyl)ethynyl)spiro[chromeno[2,3-b]pyridine-5,4′-[1,3]oxazol]-2′-amine] | 105 nM |  | 452 nM | 
16 | COc1cc(F)c2c(c1)[C@@]1(COC(N)=N1)c1cc(Br)c(F)cc1O2 [Example 524, (4R)-2′-bromo-3′,5′-difluoro-7′-methoxyspiro[1,3-oxazole-4,9′-xanthen]-2-amine] | 1140 nM |  | 1310 nM | 
17 | CC1(C#Cc2cnc3c(c2)[C@]2(COC(N)=N2)c2cc(-c4ccc(F)nc4)ccc2O3)COC1 [Example 167, (5S)-7-(6-fluoro-3-pyridinyl)-3-((3-methyl-3-oxetanyl)ethynyl)spiro[chromeno[2,3-b]pyridine-5,4′-[1,3]oxazol]-2′-amine] | 2.6 nM | 13.9 nM |  | 

Second part, the molecule after the results:

Row | IC50 [1] | IC50 [2, 3] | IC50 [2, 4] | IC50 ([2]; average IC50, HEK cells) | Compound
18 | 7.2 nM | 106 nM |  |  | Cc1ccn(-c2cnc3c(c2)[C@]2(COC(N)=N2)c2cc(-c4cccnc4)ccc2O3)n1 [Example 1022, (5S)-3-(3-methyl-1H-pyrazol-1-yl)-7-(3-pyridinyl)spiro[chromeno[2,3-b]pyridine-5,4′-[1,3]oxazol]-2′-amine]
19 | 3.9 nM | 36 nM |  |  | NC1=N[C@]2(CO1)c1cc(C3=CCCOC3)cc(F)c1Oc1ccc(-c3cccnc3F)c(F)c12 [Example 1048, (4R)-7′-(5,6-dihydro-2H-pyran-3-yl)-1′,5′-difluoro-2′-(2-fluoro-3-pyridinyl)spiro[1,3-oxazole-4,9′-xanthen]-2-amine]
20 | 2630 nM |  | 415 nM |  | NC1=N[C@@]2(CO1)c1cc(-c3ccnc(F)c3)ccc1Oc1cnc(Cl)cc12 [Example 675, (5S)-3-chloro-7-(2-fluoro-4-pyridinyl)spiro[chromeno[2,3-c]pyridine-5,4′-[1,3]oxazol]-2′-amine]
21 | 9.4 nM | 647 nM |  |  | NC1=N[C@]2(CO1)c1cc(-c3cccnc3F)ccc1Oc1c2cc(C2=CCOCC2)c(F)c1F [Example 1010, (4R)-2′-(3,6-dihydro-2H-pyran-4-yl)-3′,4′-difluoro-7′-(2-fluoro-3-pyridinyl)spiro[1,3-oxazole-4,9′-xanthen]-2-amine]
22 | 0.5 nM |  | 12 nM |  | COc1ccnc(F)c1-c1ccc2c(c1)[C@@]1(COC(N)=N1)c1cc(-c3ccnc(F)c3)ncc1O2 [Example 681, (5S)-7-(2-fluoro-4-methoxy-3-pyridinyl)-3-(2-fluoro-4-pyridinyl)spiro[chromeno[2,3-c]pyridine-5,4′-[1,3]oxazol]-2′-amine]
23 | 330 nM |  | 2780 nM |  | NC1=N[C@]2(CO1)c1cc(-c3cncc(F)c3)c(F)cc1Oc1ncc(C3=CCOCC3)cc12 [Example 648, (5R)-3-(3,6-dihydro-2H-pyran-4-yl)-8-fluoro-7-(5-fluoro-3-pyridinyl)spiro[chromeno[2,3-b]pyridine-5,4′-[1,3]oxazol]-2′-amine]
24 | 2.4 nM |  | 74 nM |  | NC1=N[C@@]2(CO1)c1cc(-c3cccnc3F)c(F)cc1Oc1ncc(-c3ccc(F)nc3)cc12 [Example 896, (5S)-8-fluoro-7-(2-fluoro-3-pyridinyl)-3-(6-fluoro-3-pyridinyl)spiro[chromeno[2,3-b]pyridine-5,4′-[1,3]oxazol]-2′-amine]
25 | 22.4 nM |  | 205 nM |  | CN(C)c1cc2c(cn1)Oc1ccc(-c3cccnc3F)cc1C21COC(N)=N1 (racemic) [Example 706]
26 | 1.1 nM | 18 nM |  |  | CC1(C#Cc2cc3c(c(F)n2)Oc2ccc(-c4cccnc4F)cc2C32COC(N)=N2)COC1 (stereo not drawn) [Example 733, 1-fluoro-7-(2-fluoro-3-pyridinyl)-3-((3-methyl-3-oxetanyl)ethynyl)spiro[chromeno[2,3-c]pyridine-5,4′-[1,3]oxazol]-2′-amine]
27 | 0.3 nM | 44 nM |  |  | NC1=N[C@@]2(CS1)c1cc(-c3cccnc3F)ccc1Oc1c(F)cc(-c3ccnc(F)c3)cc12 [Example 1071, (4S)-4′-fluoro-7′-(2-fluoro-3-pyridinyl)-2′-(2-fluoro-4-pyridinyl)spiro[1,3-thiazole-4,9′-xanthen]-2-amine]
28 | 92.6 nM |  | 609 nM |  | COc1ncccc1-c1ccc2c(c1)[C@@]1(COC(N)=N1)c1cc(N3CCC(F)(F)CC3)nc(OC)c1O2 [Example 852, (5S)-3-(4,4-difluoro-1-piperidinyl)-1-methoxy-7-(2-methoxy-3-pyridinyl)spiro[chromeno[2,3-c]pyridine-5,4′-[1,3]oxazol]-2′-amine]
29 | 3.2 nM | 42 nM |  |  | N#Cc1cccc(-c2ccc3c(c2)C2(COC(N)=N2)c2cc(C4CCOCC4)nc(F)c2O3)c1 (stereo not drawn) [Example 751, 3-(2′-amino-1-fluoro-3-(tetrahydro-2H-pyran-4-yl)spiro[chromeno[2,3-c]pyridine-5,4′-[1,3]oxazol]-7-yl)benzonitrile]
30 | 901 nM |  | 2210 nM |  | CC1(C#Cc2cnc3c(c2)[C@@]2(COC(N)=N2)c2cc(-c4cncc(Cl)c4)c(F)cc2O3)COC1 [Example 625, (5R)-7-(5-chloro-3-pyridinyl)-8-fluoro-3-((3-methyl-3-oxetanyl)ethynyl)spiro[chromeno[2,3-b]pyridine-5,4′-[1,3]oxazol]-2′-amine]
